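Compound exposure: 48 hours, 5 concentrations, 96-well plates. TGI is the concentration that stops growth completely.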
Tests used:
Assay in all cases: NCI tumour cell line growth inhibition, 48 h
CAKI-1 renal = test system: CAKI-1 renal
SK-MEL-2 melanoma = test system: SK-MEL-2 melanoma
HOP-92 NSCLC = test system: HOP-92 NSCLC
EKVX NSCLC = test system: EKVX NSCLC
MDA-MB-435 = test system: MDA-MB-435
DU-145 prostate = test system: DU-145 prostate
OVCAR-8 ovarian = test system: OVCAR-8 ovarian
T-47D breast = test system: T-47D breast
SN12C renal = test system: SN12C renal
SF-268 CNS = test system: SF-268 CNS

SMILES | TGI (CAKI-1 renal) [µM] | TGI (SK-MEL-2 melanoma) [µM] | TGI (HOP-92 NSCLC) [µM] | TGI (EKVX NSCLC) [µM] | TGI (MDA-MB-435) [µM] | TGI (DU-145 prostate) [µM] | TGI (OVCAR-8 ovarian) [µM] | TGI (T-47D breast) [µM] | TGI (SN12C renal) [µM] | TGI (SF-268 CNS) [µM]
COc1cc2nc3n(c(=O)c2cc1OC)CCCCC3 | > 100 | > 100 | > 100 | > 100 | > 100 | > 100 | > 100 | > 100 | > 100 | > 100
O=C1C(Cl)C(c2ccc([N+](=O)[O-])cc2)N1n1cnc2ccccc2c1=O (centres undefined) | > 100 | > 100 |  | 85.6 |  |  | > 100 |  | > 100 | 97.3
COc1cc2c(cc1OC)-c1[nH]c3ccc([N+](=O)[O-])cc3c1CC(=O)N2 | > 26.9 | > 52.3 | > 100 | > 84.3 | > 100 | > 100 | > 100 | > 60.5 | > 55.1 | 
O=C(CSc1nnc(-c2ccc(N=Cc3ccc(Cl)cc3)cc2)o1)Nc1cccc([N+](=O)[O-])c1 |  | > 100 |  | > 100 |  |  | > 100 |  | > 100 | > 100
CC(=O)OC12OC(C)(C3C(=O)N(c4ccccc4)C(=O)C31)N(c1ccccc1)C2=O (centres undefined) | > 100 | > 100 | > 100 | > 100 | > 100 | > 100 | > 100 | > 100 | > 100 | > 100
COc1cccc(/C=N/NC(=O)CN(C)C)c1O | > 100 |  | > 100 | > 100 | > 100 | > 100 | > 100 | > 100 | > 100 | > 100
O=C1CCc2ccccc2O1 | > 100 | > 100 | > 100 | > 100 | > 100 | > 100 | > 100 | > 100 | > 100 | > 100
COC(=O)C1CCCN1C(=O)OC(C)(C)C (centres undefined) | > 100 | > 100 |  | > 100 | > 100 | > 100 |  | > 100 | > 100 | > 100
COC(=O)CN(CC1O[C@@H]2OC(C)(C)O[C@@H]2C1NC(C)=O)C(=O)OCc1ccccc1 (some centres undefined) | > 100 | > 100 | > 100 | > 100 | > 100 | > 100 | > 100 | > 100 | > 100 | > 100
CC(=O)Nc1ccc(C(=O)n2[nH]c(C)c(/C=C3\C(=O)C=Cc4ccccc43)c2=O)cc1 | > 100 | 95.3 |  | > 100 |  |  | > 100 |  | > 100 | > 100
CC(=O)CC12NC(=O)N(C)N=C1N(C)C(=O)N(C)C2=O (centres undefined) | > 100 |  | > 100 | > 100 | 31 | > 100 | > 100 | > 100 | > 100 | > 100
CCSc1[nH]c(NC(=NC(C)C)NC(=O)c2ccccc2)c(C(N)=O)c1C(N)=O | > 10 |  | > 10 | > 10 | > 10 | > 10 | > 10 | > 10 | > 10 | > 10
COc1cc(CC(=O)c2cc3c(cc2-c2ccccc2)OCO3)cc(OC)c1OC |  | > 100 | 42 | > 100 |  |  | > 100 |  | > 100 | > 100
COc1ccc(C=NCCCN=Cc2ccc(OC)cc2O)c(O)c1 |  | > 100 | 68.8 | > 100 | > 100 | > 100 | > 100 |  | 90.6 | 
Cc1sc2nc3n(c(=O)c2c1C)N=C(c1ccccc1)CS3 | > 100 |  | > 100 | > 100 | > 100 | > 100 | > 100 | > 100 | > 100 | > 100
O=C1C(=Cc2ccc([N+](=O)[O-])o2)C(=O)N(CCc2ccccc2)S(=O)(=O)N1CCc1ccccc1 |  | 35.2 | 33.5 | > 100 |  |  | 79.2 |  | > 100 | 57.8
N#CC(C#N)C1CN2CCC1CC2 (centres undefined) | > 100 | > 100 |  | > 100 | > 100 | > 100 | > 100 | > 100 | > 100 | > 100
Cc1ccc(S(=O)(=O)NCCCSCCO)cc1 |  |  | > 100 |  | > 100 | > 100 | > 100 | > 100 | > 100 | > 100
CCCCc1c2c(nc3c1CCCC3=O)CCCC2 |  |  |  | > 100 |  |  | > 100 |  | > 100 | > 100
CC1(C)OC2[C@@H](CO[C@@]3([C@H]4OC(C)(C)O[C@@H]4CO)OC(C)(C)O[C@@H]23)O1 (some centres undefined) |  | > 100 | > 100 | > 100 | > 100 | > 100 | > 100 | > 100 | > 100 | > 100
CCN(CCN(CC)C(=O)NC)C(=O)NC |  | > 100 | > 100 | > 100 |  | > 100 | > 100 | > 100 | > 100 | > 100
C[C@]12CCC(=O)C=C1CC[C@@H]1C2CC[C@@]2(C)C1CC[C@@H]2OC(=O)C12OC1CCC2=O (some centres undefined) |  | 29.8 | 37.2 | 31.9 |  |  | 38.6 |  | 55.5 | 41.2
Brc1ccc(C[N+]23CN4CN(CN(C4)C2)C3)cc1 |  |  |  | > 100 |  |  | 99.7 |  | 62.4 | > 100
O=C1NC2OC(CO)C(O)C(O)C2O1 (centres undefined) | > 100 | > 100 | > 100 | > 100 |  |  | > 100 |  | > 100 | > 100
O=C(NCCC1CN(S(=O)(=O)C(F)(F)F)c2ccccc21)OCc1ccccc1 (centres undefined) | > 100 | > 100 | > 100 | > 100 | > 100 | > 100 | > 100 |  |  | > 100
CC(=O)N1CCN(CCCCN2c3ccccc3Sc3cc(N=[N+]=[N-])ccc32)CC1 | 24.9 |  |  | 32.7 | 29 | 32.1 | 32 | 15.2 | 31.4 | 39.1
